Literature values as cited in patent US7151091B2, “Compositions and methods for preventing infection” (The Johns Hopkins University, priority 2002, dated 2006).

How the values were obtained:
[1] = concentrations ranging from 5–100 mM
[2] = system: human immunodeficiency virus (HIV); details: given to HIV-infected pregnant women before and during childbirth and to their infants after childbirth

Structure (SMILES) | removal of membrane cholesterol [1] | reduction of HIV transmission [2]
CC(O)COC[C@H]1O[C@@H]2O[C@H]3[C@H](O)[C@@H](O)[C@@H](O[C@H]4[C@H](O)[C@@H](O)[C@@H](O[C@H]5[C@H](O)[C@@H](O)[C@@H](O[C@H]6[C@H](O)[C@@H](O)[C@@H](O[C@H]7[C@H](O)[C@@H](O)[C@@H](O[C@H]8[C@H](O)[C@@H](O)[C@@H](O[C@H]1[C@H](O)[C@H]2O)O[C@@H]8COCC(C)O)O[C@@H]7COCC(C)O)O[C@@H]6COCC(C)O)O[C@@H]5COCC(C)O)O[C@@H]4COCC(C)O)O[C@@H]3COCC(C)O (stereo partly drawn) [2-OH-propyl-beta-cyclodextrin] | removes membrane cholesterol within minutes | 
Cc1cn([C@H]2C[C@H](N=[N+]=[N-])[C@@H](CO)O2)c(=O)[nH]c1=O [zidovudine] |  | two-thirds
